The values below come from patent US20250057951A1, “DISCERNIBLE CELL SURFACE PROTEIN VARIANTS OF CD117 FOR USE IN CELL THERAPY” (UNIVERSITÄT BASEL, priority 2021, published 2025).

Usually Kd stands for a measure of binding affinity in units of concentration. Lower therefore signals a tighter complex.

Residue numbers refer to the chain shown, from its start. Names and notes keep the numbering of the source. “Also recorded” adds a separate entry of the source.

Data set [1] relates to CD117. Nature of the data set: Gene editing of CD117 in TF-1 cells, loss of SR-1 binding by FACS. It is filed as cell-based, human. The note with it: FACS 7 days after electroporation with Cas9, crRNA/tracrRNA or sgRNA and HDR template. As to the method:
Gene editing of CD117 was performed in TF-1 cells using HDR. 12 different crRNAs were tested, six of them targeting amino acid residue E73 (Table 3), and six of them targeting amino acid residues 120-123 (Table 3).
Binding of antibody SR-1 to TF-1 cells was measured by FACS 7 days after electroporation with Cas9 protein, crRNA/tracrRNA or sgRNA and HDR template (Table 4).

For data set [2], the target named is antibody Refmab #1. Nature of the data set: Octet titration, steady state KD of CD117 D1-2-3 variants to Refmab #1. It is filed as binding. On the procedure:
To further characterize binding of Refmab #1 to CD117 D1-2-3 variants E73K, E73L, E73R, E73Y, D121H, D121K, S123K and S123F, the analytes were titrated at 7 different concentrations (from 2000 nM to 5 nM). Antibody Refmab #1 was captured by AHC biosensors for 300 s at 0.5 to 1 μg/mL. Association and dissociation to Refmab #1 was extended to 600 s and 1000 s, respectively. Steady state analysis was performed.

Data set [3] concerns TF-1 cells. Nature of the data set: SCF-dependent proliferation, SCF titration on TF-1 cells with CD117 variants (CellTiter-Glo). It is filed as cell-based, human. On the procedure:
In another experiment, SCF-dependent proliferation of variants E73K, E73Y, D121K, S123F and S123K was compared against wildtype CD117. TF-1 cells were seeded at a cell concentration of 150 000 cells/ml in sterile, white cell culture treated plates with transparent bottom in RPMI+GlutaMax+10% FCS. Cells were treated with a titration of SCF. After 3 days of incubation a CellTiter-Glo 2.0 assay (Promega) was performed, luminescence was read in a luminometer (Envision plate reader) and EC50's was determined. Two different experiments with triplicates in each experiment were performed.
(In general: Cellular ATP, detected with luciferase, serves as a proxy for viable cell number.)

Data set [4] relates to antibody Refmab #1. Nature of the data set: Octet screen: binding of CD117 D1-2-3 variants to captured Refmab #1. The note with it: nm shift at end of association, top analyte concentration (500 nM). On the procedure:
(§1) A more sophisticated analysis of binding to the elected variants was performed with antibody Refmab #1. Binding of Refmab #1 to wt and variants (analyte) was measured in an Octet system RED96e or R8 at 25° C. with shaking at 1,000 rpm using 1× kinetic buffer (Sartorius, PN: 18-1105). First, the elected variants were screened for their ability to bind Refmab #1 using three different concentrations of analytes. Antibody Refmab #1 was captured by Anti-Human Fc capture biosensor (AHC) (Sartorius, PN: 18-5060) for 300 s at 0.5 to 1 μg/mL. As an analyte, human CD117 wt and variants, containing only domains 1, 2 and 3 (CD117 D1-2-3), was titrated at 500 nM, 50 nM and 5 nM. Association and dissociation of the analyte to Refmab #1 was monitored for 300 s and 900 s, respectively. Reference subtraction was performed against buffer only wells. AHC tips were regenerated using 10 mM Gly-HCl pH 1.7. Data were analyzed using the Octet Data Analysis software HT 12.0. Data were fitted (when possible) to a 1:1 binding model. Kinetic rates ka and […] globally fitted. Binding level of the elected variants were compared to wild type and are shown as percent in FIG. 7. For this qualitative analysis, the binding level of the top analyte concentration at end of the association step was used.
For orientation: Biolayer interferometry detects binding as a change in optical thickness at a sensor tip.

Data set [5] has as its target T1, SCF (Homo sapiens, UniProt P21583).
T1 construct: purchased Acros Biosystems SCF-H82E1
Nature of the data set: Octet: binding of CD117 D1-2-3 variants to SCF. Particulars: CD117 D1-2-3 constructs; for KD increase of SCF binding compared to wild type CD117: steady state. On the procedure:
SCF binding is one function of CD117. SCF binding is important for the transmission of functional signals by CD117. Binding of the elected variants to SCF was measured on an Octet system RED96e or R8 at 25° C. with shaking at 1000 rpm using 1× Kinetic Buffer (Sartorius, PN: 18-1105). […] Domain 1, 2, 3 comprise the binding site for SCF. Domains 4 and 5 were used as a negative, non-binding control.
CD117 D1-2-3 wt and variants thereof are titrated with different concentrations from 1000 to 5 nM. Association was monitored for 300 s and dissociation for 600 s. Binding to human CD117 domain 4 and 5 (CD117 D4-5) was performed under the same conditions as non-binding control. Reference subtraction was performed against buffer only wells. Biosensors were not regenerated and a new set of SA biosensors was used for each analyte. Data were analyzed using the Octet Data Analysis software HT 12.0. Steady state data analysis was performed due to the fast on/off nature of the interaction.

Data set [6] relates to Refmab #3. In words: Octet: binding of CD117 variants to Refmab #3. Particulars: qualitative Octet analysis. On the procedure: as §1
Chain of Refmab #3 (as listed by the source): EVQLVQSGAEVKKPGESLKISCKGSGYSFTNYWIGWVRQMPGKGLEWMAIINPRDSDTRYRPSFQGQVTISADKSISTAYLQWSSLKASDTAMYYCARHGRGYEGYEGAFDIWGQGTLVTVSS
Chain of Refmab #3 (as listed by the source): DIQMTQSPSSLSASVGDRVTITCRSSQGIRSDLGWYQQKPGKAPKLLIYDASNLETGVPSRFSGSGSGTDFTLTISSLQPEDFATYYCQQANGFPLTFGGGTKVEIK
A similar experiment to that in Example 7 was performed, but utilizing Refmab's #2 and #3.

The target of data set [7] is T2, Biotinylated Avitag-hSCF (human, UniProt P21583 26-190, limits assumed, biotinylated Avitag).
T2 construct: Bought reagent; also called hSCF (Acros Biosystems SCF-H82E1)
T2 sequence (P21583 26-190 limits assumed): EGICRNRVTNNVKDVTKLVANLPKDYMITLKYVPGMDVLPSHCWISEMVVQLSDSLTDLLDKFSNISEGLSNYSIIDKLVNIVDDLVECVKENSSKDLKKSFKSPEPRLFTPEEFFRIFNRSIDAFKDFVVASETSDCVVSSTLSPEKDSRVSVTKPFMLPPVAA
In words: BLI (Octet), steady state: biotinylated SCF on streptavidin biosensor, CD117 D1-2-3 variant as analyte; KD relative to WT.
Protocol: Association was monitored for 300 s and dissociation for 600 s. […] Reference subtraction was performed against buffer only wells. Biosensors were not regenerated and a new set of SA biosensors was used for each analyte. Data were analyzed using the Octet Data Analysis software HT 12.0. Steady state data analysis was performed due to the fast on/off nature of the interaction.

Setting [8] is: titration of SCF, 3 days, TF-1 cells with the CD117 variant.

T1 sequence (P21583 26-273): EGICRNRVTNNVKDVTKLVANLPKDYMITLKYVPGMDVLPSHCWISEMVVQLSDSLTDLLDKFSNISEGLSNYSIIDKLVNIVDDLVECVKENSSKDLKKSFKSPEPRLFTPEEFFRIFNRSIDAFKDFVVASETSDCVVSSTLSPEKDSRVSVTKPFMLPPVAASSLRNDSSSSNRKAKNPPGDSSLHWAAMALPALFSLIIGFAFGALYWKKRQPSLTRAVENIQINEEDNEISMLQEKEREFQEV
Chain of antibody Refmab #1 (as listed by the source): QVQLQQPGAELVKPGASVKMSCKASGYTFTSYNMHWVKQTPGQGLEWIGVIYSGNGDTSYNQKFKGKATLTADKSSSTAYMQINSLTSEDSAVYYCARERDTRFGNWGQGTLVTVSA
Chain of antibody Refmab #1 (as listed by the source): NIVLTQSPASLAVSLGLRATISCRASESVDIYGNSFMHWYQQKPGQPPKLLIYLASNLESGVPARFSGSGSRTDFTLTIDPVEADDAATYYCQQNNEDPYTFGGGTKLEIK

For the molecule “KIT_E73_1: crRNA CTGATCCGGGCTTTGTCAAA, SEQ ID NO: 3, targets E73 of CD117 (chemistry not given here)”, in data set [1], the “KnockOut Efficiency (loss of binding of SR-1 compared to wild type cells)” value was 10.8%.

As for “KIT_120_123_4: crRNA CTTGTTGACCGCTCCTTGTA, SEQ ID NO: 12, targets residues 120-123 of CD117 (chemistry not given here)”, the “KnockOut Efficiency (loss of binding of SR-1 compared to wild type cells)” value in data set [1] is recorded as 60.0%.

On to “KIT_E73_5: crRNA ATGAGAATAAGCAGAATGAA, SEQ ID NO: 7, targets E73 of CD117 (chemistry not given here)”, for which the “KnockOut Efficiency (loss of binding of SR-1 compared to wild type cells)” value in data set [1] was determined as 68.5%.

With “KIT_E73_4: crRNA TATTCTCATTCGTTTCATCC, SEQ ID NO: 6, targets E73 of CD117 (chemistry not given here)”, in data set [1], the “KnockOut Efficiency (loss of binding of SR-1 compared to wild type cells)” value amounted to 60.1%.

As for “KIT_120_123_3: crRNA TTGTTGACCGCTCCTTGTAT, SEQ ID NO: 11, targets residues 120-123 of CD117 (chemistry not given here)”, in data set [1], the “KnockOut Efficiency (loss of binding of SR-1 compared to wild type cells)” value stood at 71.2%.

For the molecule “KIT_120_123_1: crRNA GTTGTCTTCTTTCCCATACA, SEQ ID NO: 9, targets residues 120-123 of CD117 (chemistry not given here)”, the “KnockOut Efficiency (loss of binding of SR-1 compared to wild type cells)” value in data set [1] was 64.1%.

On to “KIT_E73_6: crRNA TAAGCAGAATGAATGGATCA, SEQ ID NO: 8, targets E73 of CD117 (chemistry not given here)”, for which, in data set [1], the “KnockOut Efficiency (loss of binding of SR-1 compared to wild type cells)” value came out at 60.5%.

In the case of “KIT_120_123_2: crRNA CTTCTTTCCCATACAAGGAG, SEQ ID NO: 10, targets residues 120-123 of CD117 (chemistry not given here)”, the “KnockOut Efficiency (loss of binding of SR-1 compared to wild type cells)” value in data set [1] was determined as 63.1%.

In the case of “KIT_E73_3: crRNA CAAATGGACTTTTGAGATCC, SEQ ID NO: 5, targets E73 of CD117 (chemistry not given here)”, in data set [1], the “KnockOut Efficiency (loss of binding of SR-1 compared to wild type cells)” value is reported as 37.2%.

In the case of “KIT_E73_2: crRNA AAAGTCCATTTGACAAAGCC, SEQ ID NO: 4, targets E73 of CD117 (chemistry not given here)”, the “KnockOut Efficiency (loss of binding of SR-1 compared to wild type cells)” value in data set [1] is listed as 25.7%.

In the case of “KIT_120_123_5: crRNA CATACAAGGAGCGGTCAACA, SEQ ID NO: 13, targets residues 120-123 of CD117 (chemistry not given here)”, in data set [1], the “KnockOut Efficiency (loss of binding of SR-1 compared to wild type cells)” value is 53.8%.

“S123F: variant of human CD117 with substitution S123F” showed a Kd in data set [2] (7 concentrations 2000-5 nM, steady state, two individual experiments) of 1500 nM. Besides, the “change of KD compared to wild type CD117” value in data set [2] (KD variant vs wild type) is “around 1,500 fold”. Moreover, the “EC50 Average” value in data set [3] (average of two experiments) was 3.82 ± 0.19 ng/mL. In addition, in data set [3] (setting [8]), the “EC50 Experiment #1” value came to 4.01 ng/mL and the “EC50 Experiment #2” value is 3.63 ng/mL. Also, the “binding to Refmab #1 compared to wild type” value in data set [4] is “particular strong decrease in binding”.

Take “KIT_120_123_6: crRNA GCGGTCAACAAGGAAAAGCT, SEQ ID NO: 14, targets residues 120-123 of CD117 (chemistry not given here)”: the “KnockOut Efficiency (loss of binding of SR-1 compared to wild type cells)” value in data set [1] was 60.6%.

B1: S123V: variant of human CD117 with substitution S123V (protein)
chain: QPSVSPGEPSPPSIHPGKSDLIVRVGDEIRLLCTDPGFVKWTFEILDETNENKQNEWITEKAEATNTGKYTCTNKHGLSNSIYVFVRDPAKLFLVDRVLYGKEDNDTLVRCPLTDPEVTNYSLKGCQGKPLPKDLRFIPDPKAGIMIKSVKRAYHRLCLHCSVDQEGKSVLSEKFILKVRPAFKAVPVVSVSKASYLLREGEEFTVTCTIKDVSSSVYSTWKRENSQTKLQEKYNSWHHGDFNYERQATLTISSARVNDSGVFMCYANNTFGSANVTTTLEVVDKG
As for B1, in data set [5], the “binding to SCF” value is on record as “binding to SCF, albeit to a slightly lower degree” and the “KD increase of SCF binding compared to wild type CD117” value is listed as “less than three-fold; also recorded: less than four-fold”. The “binding to Refmab #1 compared to wild type” value in data set [4] is listed as “strong decrease in binding”.

B2: S261E: variant of human CD117 with substitution S261E (protein)
chain: B1 chain with V98S, S236E
Consider B2, for which the “binding to Refmab #3 compared to wild type CD117” value in data set [6] is “complete loss of binding”.

B3: K127L: variant of human CD117 with substitution K127L (protein)
chain: B1 chain with V98S, K102L
As for B3, in data set [5], the “binding to SCF” value was “binding to SCF, albeit to a slightly lower degree”.

B4: S261Q: variant of human CD117 with substitution S261Q (protein)
chain: B1 chain with V98S, S236Q
With B4, the “binding to Refmab #3 compared to wild type CD117” value in data set [6] is on record as “complete loss of binding”.

B5: Y259E: variant of human CD117 with substitution Y259E (protein)
chain: B1 chain with V98S, Y234E
On to B5, for which, in data set [5], the “binding to SCF” value is “binding to SCF, albeit to a slightly lower degree” and the “KD increase of SCF binding compared to wild type CD117” value is “less than three-fold; also recorded: less than four-fold”.

B6: Y259A: variant of human CD117 with substitution Y259A (protein)
chain: B1 chain with V98S, Y234A
B6: the “binding to Refmab #3 compared to wild type CD117” value in data set [6] is given as “strong decrease in binding”.

B7: Y259G (receptor)
extracellular domains 1, 2 and 3: QPSVSPGEPSPPSIHPGKSDLIVRVGDEIRLLCTDPGFVKWTFEILDETNENKQNEWITEKAEATNTGKYTCTNKHGLSNSIYVFVRDPAKLFLVDRSLYGKEDNDTLVRCPLTDPEVTNYSLKGCQGKPLPKDLRFIPDPKAGIMIKSVKRAYHRLCLHCSVDQEGKSVLSEKFILKVRPAFKAVPVVSVSKASYLLREGEEFTVTCTIKDVSSSVYSTWKRENSQTKLQEKGNSWHHGDFNYERQATLTISSARVNDSGVFMCYANNTFGSANVTTTLEVVD
notes: not in the list MOLECULES; also called human CD117 D1-2-3 variant Y259G
As for B7, the “binding to Refmab #3 compared to wild type CD117” value in data set [6] is recorded as “strong decrease in binding”. In data set [7], the binding result is on record as “binds”.
